Target: T1, human GluR4B receptor (Homo sapiens, UniProt P48058)
T1 construct: expressed in transfected cells
Assay: potentiation of agonist-induced excitability of human GluR4B receptor expressed in HEK 293 cells (Fluo-3 calcium fluorescence)
Format: cell-based
Settings: human GluR4B expressed in HEK 293 cells
Text: The ability of compounds of formula I to potentiate glutamate receptor-mediated response may be determined using fluorescent calcium indicator dyes (Molecular Probes, Eugene, Oreg., Fluo-3) and by measuring glutamate-evoked efflux of calcium into GluR4 transfected HEK293 cells, as described in more detail below.
In one test, 96 well plates containing confluent monolayers of HEK cells stably expressing human GluR4B (obtained as described in European Patent Application Publication Number EP-A1-583917) are prepared. The tissue culture medium in the wells is then discarded, and the wells are each washed once with 200 μl of buffer (glucose, 10 mM, sodium chloride, 138 mM, magnesium chloride, 1 mM, potassium chloride, 5 mM, calcium chloride, 5 mM, N-[2-hydroxyethyl]-piperazine-N-[2-ethanesulfonic acid], 10 mM, to pH 7.1 to 7.3). […]
Each test is then performed as follows. […] A second fluorescent reading is taken after 5 minutes incubation. 15 μl of 400 μM glutamate solution is then added to each well (final glutamate concentration […]), and a third reading is taken. The activities of test compounds and cyclothiazide solutions are determined by subtracting the second from the third reading (fluorescence due to addition of glutamate in the presence or absence of test compound or cyclothiazide) and are expressed relative to enhance fluorescence produced by 100 μM cyclothiazide.

T1 sequence (P48058 21-902): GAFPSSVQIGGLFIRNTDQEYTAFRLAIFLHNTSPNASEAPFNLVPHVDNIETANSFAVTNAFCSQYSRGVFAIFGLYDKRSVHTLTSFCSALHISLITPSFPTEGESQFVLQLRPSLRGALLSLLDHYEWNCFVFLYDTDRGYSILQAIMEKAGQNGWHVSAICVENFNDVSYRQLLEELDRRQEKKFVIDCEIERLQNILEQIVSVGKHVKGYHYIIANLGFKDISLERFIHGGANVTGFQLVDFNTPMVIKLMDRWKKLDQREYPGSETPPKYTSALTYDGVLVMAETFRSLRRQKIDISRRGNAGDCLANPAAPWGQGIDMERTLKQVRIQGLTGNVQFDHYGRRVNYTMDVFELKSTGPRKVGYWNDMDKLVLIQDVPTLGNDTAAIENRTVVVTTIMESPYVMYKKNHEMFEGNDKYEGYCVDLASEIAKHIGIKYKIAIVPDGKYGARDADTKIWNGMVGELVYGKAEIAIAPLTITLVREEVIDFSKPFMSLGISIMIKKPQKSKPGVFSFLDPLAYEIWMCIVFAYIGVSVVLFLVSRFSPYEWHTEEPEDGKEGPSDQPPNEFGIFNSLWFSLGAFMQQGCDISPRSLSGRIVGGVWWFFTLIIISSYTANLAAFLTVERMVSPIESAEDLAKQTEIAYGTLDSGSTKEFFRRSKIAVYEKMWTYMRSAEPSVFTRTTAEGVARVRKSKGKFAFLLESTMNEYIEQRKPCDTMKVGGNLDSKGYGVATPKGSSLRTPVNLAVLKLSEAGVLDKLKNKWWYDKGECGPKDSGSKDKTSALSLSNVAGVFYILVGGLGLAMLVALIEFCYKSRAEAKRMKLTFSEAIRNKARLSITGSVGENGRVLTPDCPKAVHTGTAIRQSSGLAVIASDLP

## NS(=O)(=O)c1cc2c(cc1Cl)NC(C1CC3C=CC1C3)NS2(=O)=O (stereo not shown) [cyclothiazide]
  potentiation of agonist-induced excitability of human GluR4B receptor: potentiate

Reference: patent US6358982B1, “Heterocyclyl sulphonamide derivatives” (Eli Lilly and Company, priority 1998, dated 2002)
